Several values for one entry are separate records, joined by “and”; a condition that tells them apart may be missing. Equal values may be shown once. Inconclusive results and toxic doses are left out. Cut-off read from the data, not from the text of the source: active = T/C of 150% or more; inactive = T/C below 125%.
System: L1210 leukemia ip in BDF1 mice, survival T/C
Assay: NCI In Vivo Anticancer Drug Screen. Data for tumor model L1210 Leukemia (intraperitoneal) in B6D2F1 (BDF1) mice
Settings: endpoint: mean survival time, higher = longer survival
Outline: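 Tumor cells were implanted, animals were treated, and survival was followed. The result divides the treated measurement by the vehicle-control measurement.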

[1] = dose: 100.0 mg/kg/injection, schedule: Q04DX003 (ip), vehicle: saline with Tween-80
[2] = dose: 200.0 mg/kg/injection, schedule: Q04DX003 (ip), vehicle: saline with Tween-80
[3] = dose: 400.0 mg/kg/injection, schedule: Q04DX003 (ip), vehicle: saline with Tween-80
[4] = dose: 100.0 mg/kg/injection, schedule: Q01DX009 (ip), vehicle: saline
[5] = dose: 100.0 mg/kg/injection, schedule: Q04DX003 (ip), vehicle: saline
[6] = dose: 100.0 mg/kg/injection, schedule: Q01DX009 (ip), vehicle: saline with Tween-80
[7] = dose: 200.0 mg/kg/injection, schedule: Q01DX009 (ip), vehicle: saline with Tween-80
[8] = dose: 400.0 mg/kg/injection, schedule: Q01DX009 (ip), vehicle: saline with Tween-80
[9] = dose: 100.0 mg/kg/injection, schedule: Q04DX003 (ip), vehicle: Klucel (hydroxypropylcellulose) (HPC)
[10] = dose: 200.0 mg/kg/injection, schedule: Q04DX003 (ip), vehicle: Klucel (hydroxypropylcellulose) (HPC)
[11] = dose: 400.0 mg/kg/injection, schedule: Q04DX003 (ip), vehicle: Klucel (hydroxypropylcellulose) (HPC)
[12] = dose: 100.0 mg/kg/injection, schedule: Q01DX001 (ip), vehicle: saline
[13] = dose: 200.0 mg/kg/injection, schedule: Q01DX001 (ip), vehicle: saline
[14] = dose: 400.0 mg/kg/injection, schedule: Q01DX001 (ip), vehicle: saline
[15] = dose: 100.0 mg/kg/injection, schedule: Q01DX001 (ip), vehicle: Klucel (hydroxypropylcellulose) (HPC)
[16] = dose: 200.0 mg/kg/injection, schedule: Q01DX001 (ip), vehicle: Klucel (hydroxypropylcellulose) (HPC)
[17] = dose: 400.0 mg/kg/injection, schedule: Q01DX001 (ip), vehicle: Klucel (hydroxypropylcellulose) (HPC)
[18] = dose: 100.0 mg/kg/injection, schedule: Q04DX002 (ip), vehicle: Klucel (hydroxypropylcellulose) (HPC)
[19] = dose: 200.0 mg/kg/injection, schedule: Q04DX002 (ip), vehicle: Klucel (hydroxypropylcellulose) (HPC)
[20] = dose: 400.0 mg/kg/injection, schedule: Q04DX002 (ip), vehicle: Klucel (hydroxypropylcellulose) (HPC)
[21] = dose: 75.0 mg/kg/injection, schedule: Q01DX001 (ip), vehicle: other
[22] = dose: 150.0 mg/kg/injection, schedule: Q01DX001 (ip), vehicle: other
[23] = dose: 300.0 mg/kg/injection, schedule: Q01DX001 (ip), vehicle: other
[24] = dose: 100.0 mg/kg/injection, schedule: Q01DX001 (ip), vehicle: carboxymethylcellulose (CMC)
[25] = dose: 200.0 mg/kg/injection, schedule: Q01DX001 (ip), vehicle: carboxymethylcellulose (CMC)
[26] = dose: 400.0 mg/kg/injection, schedule: Q01DX001 (ip), vehicle: carboxymethylcellulose (CMC)
[27] = dose: 100.0 mg/kg/injection, schedule: Q04DX002 (ip), vehicle: saline
[28] = dose: 200.0 mg/kg/injection, schedule: Q04DX002 (ip), vehicle: saline
[29] = dose: 400.0 mg/kg/injection, schedule: Q04DX002 (ip), vehicle: saline

Measured: T/C

NC(=O)c1ccc[n+](CCc2c[nH]c3ccccc23)c1
inactive: dose: 75.0 mg/kg/injection, schedule: Q01DX001 (ip), vehicle: saline with Tween-80 94 % of control | dose: 150.0 mg/kg/injection, schedule: Q01DX001 (ip), vehicle: saline with Tween-80 101 % of control | dose: 300.0 mg/kg/injection, schedule: Q01DX001 (ip), vehicle: saline with Tween-80 98 % of control

O=P(OCc1ccccc1)(N(CCCl)CCCl)N1CCN(P(=O)(OCc2ccccc2)N(CCCl)CCCl)CC1 (stereo not drawn)
inactive: dose: 16.0 mg/kg/injection, schedule: Q01DX Z (ip), vehicle: saline 94 % of control | dose: 32.0 mg/kg/injection, schedule: Q01DX Z (ip), vehicle: saline 89 % of control | dose: 64.0 mg/kg/injection, schedule: Q01DX Z (ip), vehicle: saline 95 % of control | dose: 128.0 mg/kg/injection, schedule: Q01DX Z (ip), vehicle: saline 111 % of control

COc1ccc(/C=N/CCl)cc1
inactive: [1] 110 % of control | [2] 92 % of control | [3] 96 % of control

OCC#CC#CCO
inactive: dose: 25.0 mg/kg/injection, schedule: Q01DX009 (ip), vehicle: saline 95 % of control | dose: 50.0 mg/kg/injection, schedule: Q01DX009 (ip), vehicle: saline 115 % of control | [4] 105 % of control | [5] 103 % of control

Cc1ccc(Cl)cc1NC(=O)Nc1ccc(N(C)C)cc1
inactive: dose: 100.0 mg/kg/injection, schedule: Q01DX001 (ip), vehicle: saline with Tween-80 92 % of control | [6] 87 % of control and 90 % of control | dose: 100.0 mg/kg/injection, schedule: Q04DX002 (ip), vehicle: saline with Tween-80 95 % of control and 90 % of control | [1] 92 % of control | dose: 200.0 mg/kg/injection, schedule: Q01DX001 (ip), vehicle: saline with Tween-80 87 % of control | [7] 89 % of control and 90 % of control | dose: 200.0 mg/kg/injection, schedule: Q04DX002 (ip), vehicle: saline with Tween-80 98 % of control and 87 % of control | [2] 92 % of control | dose: 400.0 mg/kg/injection, schedule: Q01DX001 (ip), vehicle: saline with Tween-80 87 % of control | [8] 97 % of control and 91 % of control | dose: 400.0 mg/kg/injection, schedule: Q04DX002 (ip), vehicle: saline with Tween-80 87 % of control | [3] 89 % of control

CCc1ccc(C(C)(C)C)cc1
inactive: dose: 50.0 mg/kg/injection, schedule: Q01DX009 (ip), vehicle: saline with Tween-80 95 % of control | [6] 95 % of control | [7] 107 % of control

COc1cc(C)ccc1-c1c(C(=O)O)cccc1[N+](=O)[O-]
inactive: [9] 93 % of control | [10] 95 % of control | [11] 90 % of control

CCOC(=O)CNC(=O)C1OC(n2cnc3c(N)ncnc32)C(O)C1O (stereo not drawn)
inactive: dose: 6.25 mg/kg/injection, schedule: Q01DX009 (ip), vehicle: saline 105 % of control | dose: 12.5 mg/kg/injection, schedule: Q01DX005 (ip), vehicle: saline 102 % of control | dose: 12.5 mg/kg/injection, schedule: Q01DX009 (ip), vehicle: saline 110 % of control | dose: 25.0 mg/kg/injection, schedule: Q01DX005 (ip), vehicle: saline 114 % of control

COC(=O)C1C=C2c3cccc4[nH]cc(c34)CC2N(C#N)C1 (stereo not drawn)
inactive: dose: 25.0 mg/kg/injection, schedule: Q04DX003 (ip), vehicle: alcohol 91 % of control | dose: 50.0 mg/kg/injection, schedule: Q04DX003 (ip), vehicle: alcohol 100 % of control | dose: 100.0 mg/kg/injection, schedule: Q04DX003 (ip), vehicle: alcohol 96 % of control | dose: 200.0 mg/kg/injection, schedule: Q04DX003 (ip), vehicle: alcohol 93 % of control | dose: 400.0 mg/kg/injection, schedule: Q04DX003 (ip), vehicle: alcohol 94 % of control

CCCCN(C)CCNc1cc(C)nc(/N=C(\N)Nc2ccc(Cl)c(Cl)c2)n1
inactive: dose: 18.75 mg/kg/injection, schedule: Q01DX009 (ip), vehicle: Klucel (hydroxypropylcellulose) (HPC) 103 % of control | dose: 37.5 mg/kg/injection, schedule: Q01DX009 (ip), vehicle: Klucel (hydroxypropylcellulose) (HPC) 97 % of control

CCC(Cl)C(=O)Nc1ccccc1 (stereo not drawn)
inactive: dose: 50.0 mg/kg/injection, schedule: Q01DX001 (ip), vehicle: saline 96 % of control | [12] 108 % of control | [13] 102 % of control | [14] 104 % of control

CCOC(=O)C(C(C)=O)C(CCc1cc(OC)ccc1OC)C(C(C)=O)C(=O)OCC (stereo not drawn)
inactive: [12] 109 % of control | [13] 101 % of control | [14] 97 % of control

CC1SCC(=O)CS1
inactive: [15] 93 % of control | [9] 91 % of control | [16] 96 % of control | [10] 94 % of control | [17] 96 % of control | [11] 97 % of control

O=C1Nc2cccc3c2N(CCC3)C2=C1CCC2
inactive: [18] 105 % of control | [19] 105 % of control | [20] 108 % of control

O=C1CC2C(=O)CC1C(C(=O)O)C2C(=O)O (stereo not drawn)
inactive: dose: 75.0 mg/kg/injection, schedule: Q01DX001 (ip), vehicle: saline 102 % of control | [15] 103 % of control | dose: 150.0 mg/kg/injection, schedule: Q01DX001 (ip), vehicle: saline 104 % of control | [16] 119 % of control | dose: 300.0 mg/kg/injection, schedule: Q01DX001 (ip), vehicle: saline 105 % of control | [17] 98 % of control

Clc1ccc(NP(Br)(c2ccccc2)(c2ccccc2)c2ccccc2)cc1
inactive: [21] 107 % of control | [22] 104 % of control | [23] 101 % of control

Cc1nccc(=O)[nH]1
inactive: [4] 99 % of control | [5] 106 % of control | dose: 200.0 mg/kg/injection, schedule: Q01DX009 (ip), vehicle: saline 99 % of control | dose: 200.0 mg/kg/injection, schedule: Q04DX003 (ip), vehicle: saline 106 % of control | dose: 400.0 mg/kg/injection, schedule: Q04DX003 (ip), vehicle: saline 92 % of control

CC(C)OC(=O)NN1CCCCCC1
inactive: [18] 92 % of control | [19] 105 % of control | [20] 96 % of control

OC1CCC2C3CC=CC3C12 (stereo not drawn)
inactive: [21] 93 % of control | [22] 98 % of control | [23] 106 % of control

CC(=O)N1Cc2c(N)nc(N)nc2C1C (stereo not drawn)
inactive: [24] 101 % of control | [25] 95 % of control | [26] 104 % of control

CSc1ccc(NC(=O)NCCc2ccccc2)cc1
inactive: [6] 94 % of control | [9] 96 % of control | [7] 102 % of control | [10] 96 % of control | [8] 107 % of control | [11] 104 % of control

Nc1[nH]c(=O)cc(O)c1N
inactive: dose: 12.5 mg/kg/injection, schedule: Q04DX003 (ip), vehicle: saline 108 % of control | dose: 25.0 mg/kg/injection, schedule: Q04DX003 (ip), vehicle: saline 105 % of control | [5] 98 % of control

CCN(C)C(=O)Nc1ccc(N)cc1
inactive: [27] 101 % of control | [28] 104 % of control | [29] 108 % of control

CC(=O)Nc1ccc(O)cc1
inactive: [24] 93 % of control | [27] 116 % of control | [9] 97 % of control | [25] 96 % of control | [28] 100 % of control | [10] 104 % of control | [26] 107 % of control | [29] 88 % of control | [11] 111 % of control

— PubChem BioAssay AID248 (DTP/NCI, 2004)
